pEC50, pKi: −log10 of the molar value. No end group written: not given here.
Columns and labels:
[1] = target: T1, human nociceptin receptor (ORL-1) (Homo sapiens, UniProt P41146); test: Nociceptin receptor binding assay: binding of 125I-Tyr14-nociceptin to ORL-1 on HEK-293 cell membranes; details: for pKi: competition with 0.5 nM 125I-Tyr14-nociceptin, HEK-293 cell membranes, 3 experiments in duplicate; for Ki(x)/Ki(WT): ratio of variant Ki to nociceptin Ki
T1 construct: expressed in transfected cells
Description: Binding of peptides to the ORL-1 Receptor. […] ORL-1 membranes were diluted in binding buffer such that 25 μL containing 1 microgram (μg) of membrane was added to each well of a standard 96-well microtiter in binding buffer. […] Plates were incubated for two hours at room temperature and the reactions were filtered over GF/C Filterplates (Perkin Elmer-NEN), prewetted in 0.03% polyethleneimine, in a Filtermate 196 apparatus (Packard). Plates were washed six times with binding buffer in the filtration apparatus, then dried under vacuum for 1-2 hours. Twenty five microliters (25 μL) Microscint 20 (Packard) per well was added to solubilize bound radioactivity. The plates were then sealed and counted on a Packard Top Count to determine radioactivity bound to the membranes. Curves were fitted and IC50 values determined using Graphpad Prizm software (v3.0).

ORL1 [2] = target: T2, ORL1 (Homo sapiens, UniProt P41146); test: Calcium flux (FLIPR) in carbachol-sensitized HEK-293 cells expressing ORL-1 receptor; format: cell-based; set-up: expressed in transfected cells; host or cells: HEK-293 cells expressing ORL-1 receptor; details: for pEC50: HEK-293 cells expressing ORL-1, pretreated with 100 μM carbachol, read-out: EC50 (calcium release); for EC50(x)/EC50(WT): ratio of variant EC50 to nociceptin EC50
Description: HEK-293 cells expressing ORL-1 receptor were plated at a density of 50,000 cells/well in a total volume of 50 ↑L onto 96-well plates. Two days later cells were prepared for assay using the FLIPR Calcium Assay Kit (Molecular Devices) according to manufacturer's directions, with the exception that the volume of dye mix added to each well was 50 μL instead of 100 μL. Cells were then treated with 100 μM carbachol in 100 μL. […] Data points were collected at one per second for 120 seconds, then one every three seconds for 30 seconds for a total collection time of 150 seconds after both the first and second additions.
This produced a “percent of carbachol response” for each dose. The experiment was repeated 6 times and the high and low values for each concentration were dropped. The data were used to generate EC50 curves using GraphPad Prizm v.3.0 software.
Target sequence in this assay (P41146 whole entry): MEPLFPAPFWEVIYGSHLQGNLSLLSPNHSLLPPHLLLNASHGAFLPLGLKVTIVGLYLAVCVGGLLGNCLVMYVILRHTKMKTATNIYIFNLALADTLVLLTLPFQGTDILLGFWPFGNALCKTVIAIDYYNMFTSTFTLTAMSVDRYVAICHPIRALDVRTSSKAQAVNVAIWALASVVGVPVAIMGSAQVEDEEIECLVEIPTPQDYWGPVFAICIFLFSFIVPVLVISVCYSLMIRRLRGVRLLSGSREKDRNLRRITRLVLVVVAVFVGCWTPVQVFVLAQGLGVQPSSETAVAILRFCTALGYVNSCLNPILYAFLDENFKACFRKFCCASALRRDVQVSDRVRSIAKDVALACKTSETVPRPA

ORL1 [3] = target: T2, ORL1; details: cited from earlier work
Target sequence in this assay (P41146 whole entry, species assumed): as the sequence (P41146 whole entry) above

T1 sequence (P41146 whole entry): as above

Compound	pKi [1]	Ki(x)/Ki(WT) [1]	pEC50 (ORL1 [2])	EC50(x)/EC50(WT) (ORL1 [2])	fold lower affinity for ORL1 than nociceptin (ORL1 [3]) [fold]
CCCC[C@H](NC(=O)CNC(=O)[C@@H](NC(=O)[C@H](Cc1ccccc1)NC(=O)CNC(=O)CNC(=O)[C@@H](N)Cc1ccccc1)[C@@H](C)O)C(=O)N[C@@H](CCCNC(=N)N)C(=O)N[C@@H](CCCCN)C(=O)N[C@@H](CO)C(=O)N[C@@H](C)C(=O)N[C@@H](CCCNC(=N)N)C(=O)N[C@@H](CCCCN)C(=O)N[C@@H](CC(C)C)C(=O)N[C@@H](C)C(=O)N[C@@H](CC(N)=O)C(=O)N[C@@H](CCC(N)=O)C(=O)O [Peptide A7nleu]	9.30	0.7	7.54	12	–
CCCC[C@H](NC(=O)[C@H](CO)NC(=O)[C@H](CCCCN)NC(=O)[C@H](CCCNC(=N)N)NC(=O)[C@H](C)NC(=O)CNC(=O)[C@@H](NC(=O)[C@H](Cc1ccccc1)NC(=O)CNC(=O)CNC(=O)[C@@H](N)Cc1ccccc1)[C@@H](C)O)C(=O)N[C@@H](CCCNC(=N)N)C(=O)N[C@@H](CCCCN)C(=O)N[C@@H](CC(C)C)C(=O)N[C@@H](C)C(=O)N[C@@H](CC(N)=O)C(=O)N[C@@H](CCC(N)=O)C(=O)O [Peptide A11nleu]	8.72	2.6	8.38	1.8	–
AGGFTGARKSARKLANQ [Peptide F1A]	7.04	127	5.84	601	–
FAGFTGARKSARKLANQ [Peptide G2A]	6.72	265	5.86	581	–
FGAFTGARKSARKLANQ [Peptide G3A]	8.80	2.2	7.89	5.5	–
FGGATGARKSARKLANQ [Peptide F4A]	6.73	262	5.41	1617	–
FGGFAGARKSARKLANQ [Peptide T5A]	8.19	8.9	6.80	66	–
FGGFLGARKSARKLANQ [Peptide T5L]	8.66	3.1	7.85	5.7	–
FGGFSGARKSARKLANQ [Peptide T5S]	8.85	2.0	7.57	11	–
FGGFTAARKSARKLANQ [Peptide G6A]	8.82	2.1	7.41	16	–
FGGFTGAAKSARKLANQ [Peptide R8A]	7.30	69	7.16	29	–
FGGFTGAKKSAKKLANQ [R8K/R12K]	8.41	5.4	7.27	22	–
FGGFTGAKKSARKLANQ [Peptide R8K]	7.49	45	7.19	27	–
FGGFTGARASARKLANQ [Peptide K9A]	8.82	2.1	8.55	1.2	–
FGGFTGARKAARKLANQ [Peptide S10A]	9.10	1.2	7.38	18	–
FGGFTGARKSAAKLANQ [Peptide R12A]	8.55	3.9	8.89	0.5	–
FGGFTGARKSAKKLANQ [Peptide R12K]	9.10	1.1	8.62	1.0	–
FGGFTGARKSARALANQ [Peptide K13A]	8.82	2.1	8.96	0.5	–
FGGFTGARKSARKAANQ [Peptide L14A]	9.70	0.3	8.15	2.9	–
FGGFTGARKSARKLAAQ [Peptide N16A]	9.52	0.4	8.77	0.7	–
FGGFTGARKSARKLANA [Peptide Q17A]	9.10	1.1	7.92	4.8	–
FGGFTGARKSARKLGNQ [Peptide A15G]	9.70	0.3	8.72	0.8	–
FGGFTGARKSGRKLANQ [Peptide A11G]	8.49	4.4	7.96	4.8	–
FGGFTGARKSLRKLANQ [Peptide A11L]	9.05	1.2	8.08	3.5	–
FGGFTGARKSSRKLANQ [Peptide A11S]	8.92	1.7	8.92	0.5	–
FGGFTGGRKSARKLANQ [Peptide A7G]	8.11	11	7.74	7.4	–
FGGFTGLRKSARKLANQ [Peptide A7L]	9.10	1.1	7.89	5.2	–
FGGFTGSRKSARKLANQ [Peptide A7S]	8.82	2.1	8.25	2.3	–
Y G G F L R R I R P K L K W D N Q [Dynorphin A]	–	–	–	–	100

From patent US20050266575A1 (priority 2004, published 2005)
